Assay [1] has as its target T1, ALDH1A1 enzyme (Homo sapiens, UniProt P00352).
T1 sequence (P00352 1-501): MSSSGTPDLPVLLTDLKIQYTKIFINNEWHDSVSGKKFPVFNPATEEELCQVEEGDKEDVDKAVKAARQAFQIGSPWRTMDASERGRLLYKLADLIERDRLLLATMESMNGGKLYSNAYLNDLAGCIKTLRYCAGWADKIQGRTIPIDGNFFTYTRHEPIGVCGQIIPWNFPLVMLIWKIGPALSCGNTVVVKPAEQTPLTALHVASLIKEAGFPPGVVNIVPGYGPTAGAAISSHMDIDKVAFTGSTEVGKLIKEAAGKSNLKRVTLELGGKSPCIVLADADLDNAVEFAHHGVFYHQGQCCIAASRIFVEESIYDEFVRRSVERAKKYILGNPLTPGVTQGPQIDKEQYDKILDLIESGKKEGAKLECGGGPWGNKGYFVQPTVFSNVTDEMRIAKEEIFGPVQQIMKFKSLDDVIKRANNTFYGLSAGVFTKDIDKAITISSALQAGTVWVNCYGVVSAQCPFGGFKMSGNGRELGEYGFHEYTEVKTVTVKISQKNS
Kind of assay: ALDH1A1 enzymatic assay (in vitro). Format: biochemical. The settings on record: ALDH1A1 enzyme 20 nM, NAD+ 1 mM, propionaldehyde 80 μM; read-out: ALDH1A1 IC50. The gist of the method: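 ALDH1A1 (20 nM final) in 100 mM HEPES pH 7.5, 0.01% Tween 20 was preincubated 15 min at RT with compound (968 pM–57.2 μM final), then started with 1 mM NAD+ and 80 μM propionaldehyde. NADH fluorescence (ex 340/em 450 nm) followed kinetically for 10 min; change normalized to no-inhibitor and no-enzyme controls for percent inhibition and curve fitting.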

For assay [2], the system named is MIA PaCa-2 cells. Kind of assay: MIA PaCa2 cell-based assay (1,536-well high-content imaging ALDEFLUOR assay). Also on record: species or system human. The settings on record: Homo sapiens, 0.5 h, ALDEFLUOR BAAA substrate 500 nM, 30 minutes. An outline of the steps:
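High-content ALDEFLUOR imaging readout: BAA-retaining cells in FITC channel scored against Hoechst-counted nuclei. Before imaging, MIA PaCa-2 cells seeded at 1,000 per well received final 500 nM BAAA and 0.5 nM Hoechst with compounds in 16-point series (1.4 nM to 47.8 μM), 30 min, 37° C.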

For `CS(=O)(=O)C1CCN(C(=O)c2cnc3ccsc3c2N2CCC(C#N)(c3ccccc3)CC2)CC1` [Example 293, 1-(6-(4-(methylsulfonyl)piperidine-1-carbonyl)thieno[3,2-b]pyridin-7-yl)-4-phenylpiperidine-4-carbonitrile], the IC50 in assay [1] and in assay [2] was under 500 nM each time.

Turning to `CS(=O)(=O)C1CCN(C(=O)c2cnc3ccc(Cl)cc3c2-c2ccc(C3(C#N)CC3)cc2)CC1` [Example 295, 1-(4-(6-chloro-3-(4-(methylsulfonyl)piperidine-1-carbonyl)quinolin-4-yl)phenyl)cyclopropanecarbonitrile], the IC50 in assay [1] and in assay [2] was under 500 nM throughout.

Take `CN(C)C(=O)N1CCN(C(=O)c2cnc3ccc(Cl)cc3c2-c2ccc(C3(C#N)CC3)cc2)CC1` [Example 296, 4-(6-chloro-4-(4-(1-cyanocyclopropyl)phenyl)quinoline-3-carbonyl)-N,N-dimethylpiperazine-1-carboxamide]: the IC50 in assay [1] and in assay [2] was under 500 nM in each case.

As to `CN(C)S(=O)(=O)N1CCN(C(=O)c2cnc3ccc(Cl)cc3c2-c2ccc(C3(C#N)CC3)cc2)CC1` [Example 298, 4-(6-chloro-4-(4-(1-cyanocyclopropyl)phenyl)quinoline-3-carbonyl)-N,N-dimethylpiperazine-1-sulfonamide], the IC50 in assay [1] and in assay [2] was under 500 nM in each case.

Take `CC(C)(C#N)c1ccc(-c2c(C(=O)N3CCN(S(C)(=O)=O)CC3)ccc3ccccc23)cc1` [Example 299, 2-methyl-2-(4-(2-(4-(methylsulfonyl)piperazine-1-carbonyl)naphthalen-1-yl)phenyl)propanenitrile]: the IC50 in assay [1] and in assay [2] was under 500 nM each time.

Take `CS(=O)(=O)N1CCN(C(=O)c2ccc3ccccc3c2-c2ccc(C3(C#N)CC3)cc2)CC1` [Example 300, 1-(4-(2-(4-(methylsulfonyl)piperazine-1-carbonyl)naphthalen-1-yl)phenyl)cyclopropanecarbonitrile]: the IC50 in assay [1] and in assay [2] was under 500 nM throughout.

For the origin of these results see patent US11795177B2, “Substituted quinoline analogs as aldehyde dehydrogenase 1A1 (ALDH1A1) inhibitors” (THE UNITED STATES OF AMERICA, AS REPRESENTED BY THE …, priority 2017, dated 2023).
